Values quoted from earlier work as cited in patent US9821060B2, “Heat-sensitive nanoparticle system” (FONDAZIONE ISTITUTO ITALIANO DI TECNOLOGIA, priority 2013, dated 2017).

Conditions: in water

half-life temperature at 10 hours: 57 °C
Compound: CC(C)(N=NC(C)(C)C(=O)NCCC(=O)O)C(=O)NCCC(=O)O.O [VA057, 2,2′Azobis-[N-(2-carboxyethyl)-2-methylpropionamide]hydrate]
